In PubChem BioAssay AID1963846 (Molecular Pharmacology Branch, DTP, NCI, 2024):

System: 454973-116-R2-J3-PDC complex spheroid viability
Test: Anticancer human tumor 454973-116-R2-J3-PDC patient-derived pancreatic carcinoma cell line growth inhibition [POLQ]
Conditions: for IC50: curve of first compound; for viability, T/C: stronger effect = lower value
In short: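 Growth inhibition in 3D: complex spheroids (tumor PDC, HUVEC, MSC) treated with POLQ inhibitor combinations; where Cmax unknown, highest tested concentration 10 microM, except SN-38 at 1 microM.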
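Also: spheroids exposed to drugs for seven days before measurement.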
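For viability, T/C in this document: percent viability relative to DMSO vehicle control wells taken as 100%.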

Compound: O=C(c1cc(Cc2n[nH]c(=O)c3ccccc23)ccc1F)N1CCN(C(=O)C2CC2)CC1 + Nc1ccc(C#CCN(C(=O)Cc2ncc(C(F)(F)F)cc2C(F)(F)F)c2ccc(F)cc2)nn1
- IC50 (second compound 0.0316 µM): > 10 µM
- IC50 (second compound 0.1 µM): > 10 µM
- IC50 (second compound 0.316 µM): 9.69 µM
- IC50 (second compound 1 µM): > 10 µM
- IC50 (second compound 3.16 µM): > 10 µM
- IC50 (second compound 10 µM): > 10 µM
- viability, T/C (second compound 0.0316 µM, first compound 0.0316 µM): 101%
- viability, T/C (second compound 0.0316 µM, first compound 0.1 µM): 101%
- viability, T/C (second compound 0.0316 µM, first compound 0.316 µM): 90.8%
- viability, T/C (second compound 0.0316 µM, first compound 1 µM): 91%
- viability, T/C (second compound 0.0316 µM, first compound 3.16 µM): 95.1%
- viability, T/C (second compound 0.0316 µM, first compound 10 µM): 58.9%
- viability, T/C (second compound 0.1 µM, first compound 0.0316 µM): 101%
- viability, T/C (second compound 0.1 µM, first compound 0.1 µM): 101%
- viability, T/C (second compound 0.1 µM, first compound 0.316 µM): 102%
- viability, T/C (second compound 0.1 µM, first compound 1 µM): 102%
- viability, T/C (second compound 0.1 µM, first compound 3.16 µM): 83.5%
- viability, T/C (second compound 0.1 µM, first compound 10 µM): 62.2%
- viability, T/C (second compound 0.316 µM, first compound 0.0316 µM): 102%
- viability, T/C (second compound 0.316 µM, first compound 0.1 µM): 105%
- viability, T/C (second compound 0.316 µM, first compound 0.316 µM): 103%
- viability, T/C (second compound 0.316 µM, first compound 1 µM): 98.2%
- viability, T/C (second compound 0.316 µM, first compound 3.16 µM): 90.5%
- viability, T/C (second compound 0.316 µM, first compound 10 µM): 48.2%
- viability, T/C (second compound 1 µM, first compound 0.0316 µM): 104%
- viability, T/C (second compound 1 µM, first compound 0.1 µM): 105%
- viability, T/C (second compound 1 µM, first compound 0.316 µM): 114%
- viability, T/C (second compound 1 µM, first compound 1 µM): 102%
- viability, T/C (second compound 1 µM, first compound 3.16 µM): 97.4%
- viability, T/C (second compound 1 µM, first compound 10 µM): 54.6%
- viability, T/C (second compound 3.16 µM, first compound 0.0316 µM): 111%
- viability, T/C (second compound 3.16 µM, first compound 0.1 µM): 112%
- viability, T/C (second compound 3.16 µM, first compound 0.316 µM): 102%
- viability, T/C (second compound 3.16 µM, first compound 1 µM): 99.9%
- viability, T/C (second compound 3.16 µM, first compound 3.16 µM): 101%
- viability, T/C (second compound 3.16 µM, first compound 10 µM): 59.7%
- viability, T/C (second compound 10 µM, first compound 0.0316 µM): 117%
- viability, T/C (second compound 10 µM, first compound 0.1 µM): 113%
- viability, T/C (second compound 10 µM, first compound 0.316 µM): 113%
- viability, T/C (second compound 10 µM, first compound 1 µM): 112%
- viability, T/C (second compound 10 µM, first compound 3.16 µM): 101%
- viability, T/C (second compound 10 µM, first compound 10 µM): 57.2%
